Test results taken from patent US9090655B2, “Low hemolytic antimicrobial peptide, pharmaceutical composition and use thereof” (priority 2010, dated 2015).
Like-named read-outs stand apart in the source and are kept apart here. Where no end group is shown, it is not given here.

Assays:
Type in all cases: cell-based
[1] = test system: human red blood cells (hRBC); test: Hemolytic assay; settings: for lysis percentage: hRBC 5% v/v, one hour at 37° C.
Protocol: Melittin, Pem-2252 L and Pem-2254 L were tested for hemolysis against human red blood cells (hRBC). […] The hRBCs with EDTA were rinsed 3 times with PBS (800×g, 10 min) and re-suspended in PBS. The hRBCs were diluted into 10% with phosphate-buffered saline and placed 50 μl into each eppendorf. The peptides dissolved in PBS were then added to 50 μl of 10% solution of hRBCs and incubated for an hour at 37° C. (final hRBC concentration, 5% v/v). The samples were centrifuged at 800 g for 10 min […]. Various concentrations of peptides were incubated with pretreated hRBC and the percentage of hemolysis determined (Percentage lysis, Zero hemolysis (blank) and 100% hemolysis were determined in PBS buffer and 1% Triton X-100). […] At 5 μg/ml, 50 μg/ml and 400 μg/ml, its lysis percentages were 0.45%, 1.52% and 16.35%, respectively.

[2] = test system: outer membrane of E. coli; test: Outer membrane permeabilization, NPN uptake assay; settings: intact E. coli cells, NPN fluorescence
Protocol: The outer membrane permeabilization activity of the peptide variants was determined by the 1-N-phenylnaphthylamine (NPN) uptake assay, using intact cells of E. coli. […] Since NPN is hydrophobic, it provides a direct measurement of the degree of outer membrane permeability. E. coli take up little or no NPN in a general condition. […] Fluorescence would vary with the concentration of peptide. The steps of the embodiment were described as follow. One ml of overnight culture was used to inoculate 50 ml of media and incubated at 37° C. with shaking. The culture was permitted to grow to an OD600 of 0.4 to 0.6, cells were spun down at 3500 rpm for 10 minutes, washed, and re-suspended in buffer to an OD600 of 0.5. The OD600 was recorded, 1 ml of cells (OD600=0.5) was added to the cuvette and measured after 2-5 seconds. 20 μl NPN 0.5 mM, shaken to mix, was added and measured after 2-5 seconds. 10 ul antibiotic 100× desired final concentration was added, shaken to mix, and measured until the maximal value was reached within 1 to 5 minutes. The concentration of peptide leading to 50% of the maximum increase in NPN uptake was recorded as the P50. As results shown in table 4, all of the peptides were capable of interacting with membrane.

[3] = test system: Pseudomonas aeruginosa (ATCC 27853)
Protocol: (§1) The in vitro antimicrobial activities of antimicrobial agents were tested using minimum inhibition concentration (MIC) tests. The MIC value is the lowest concentration of peptide at which the visible growth of test organisms was inhibited and reduced. The test strains herein were E. coli (ATCC 25922), Pseudomonas aeruginosa (ATCC 27853) and Staphylococcus aureus (ATCC 29213).
(§2) Overnight cultures of the test organisms were diluted to produce an inoculum containing approximately 10^5 colonies in Meuller-Hinton broth (MHB). Peptide solution with different concentrations was added to diluted culture of the test organisms. After 18 hours of incubation at 37° C., the results were assayed for turbidity as an indicator of cell growth. MIC values for the peptides were measured three times at different time points. […] On the other hand, modifications for primary or secondary structures without influencing their activity, such as acetylation, amidation, formylation, hydroxylation, lipid modification, methylation or phosphorylation, were performed herein.

E. coli (ATCC 25922) = test system: E. coli (ATCC 25922)
Protocol: as §1, §2

[4] = test system: Staphylococcus aureus (ATCC 29213)
Protocol: as §1, §2

Bacillus pumilus = test system: Bacillus pumilus
From the text: (§3) The MIC values against various strains are shown in table 3, Pem-2251 L and Pem-2254 L have great microbial activity as well.

Bacillus substilis = test system: Bacillus substilis
From the text: as §3

Staphylococcus aureus = test system: Staphylococcus aureus
From the text: as §3

Pseudomonas aeruginosa = test system: Pseudomonas aeruginosa
From the text: as §3

[5] = test system: Staphylococcus epidermidis
From the text: as §3

Bacillus cereus = test system: Bacillus cereus
From the text: as §3

E. coli = test system: E. coli
From the text: as §3

[6] = P. aeruginosa ATCC 27853, MHB, 18 hours at 37° C., mean of three
[7] = E. coli ATCC 25922, MHB, 18 hours at 37° C., mean of three
[8] = S. aureus ATCC 29213, MHB, 18 hours at 37° C., mean of three

Row | Compound | MIC ([3]; ATCC 27853, 18 h) | MIC (E. coli (ATCC 25922); ATCC 25922, 18 h) | MIC ([4]; ATCC 29213, 18 h) | MIC [3, 6] | MIC (E. coli (ATCC 25922); [7]) | MIC [4, 8] | other results
1 | CC[C@H](C)[C@H](NC(=O)CN)C(=O)NCC(=O)N[C@@H](C)C(=O)N[C@H](C(=O)N[C@@H](CC(C)C)C(=O)N[C@@H](CCCCN)C(=O)N[C@H](C(=O)N[C@@H](CC(C)C)C(=O)N[C@H](C(=O)N[C@H](C(=O)NCC(=O)N[C@@H](CC(C)C)C(=O)N1CCC[C@H]1C(=O)N[C@@H](C)C(=O)N[C@@H](CC(C)C)C(=O)N[C@H](C(=O)N[C@@H](CO)C(=O)N[C@@H](Cc1c[nH]c2ccccc12)C(=O)N[C@H](C(=O)N[C@@H](CCCCN)C(=O)N[C@@H](CCCNC(=N)N)C(=O)N[C@@H](CCCCN)C(=O)N[C@@H](CCCNC(=N)N)C(=O)N[C@@H](CCC(N)=O)C(=O)N[C@@H](CCC(N)=O)C(N)=O)[C@@H](C)CC)[C@@H](C)CC)[C@@H](C)O)[C@@H](C)O)C(C)C)C(C)C [Melittin, reference compound] | – | – | – | – | – | – | lysis percentage ([1]; 5 μg/ml peptide): 50%; lysis percentage ([1]; 50 μg/ml peptide): 100%; lysis percentage ([1]; 400 μg/ml peptide): 100%
2 | KFKRWLA-NH2 [Pem-1001 L, Lys Phe Lys Arg Trp Leu Ala] | 50 µg/mL | 50 µg/mL | 50 µg/mL | – | – | – | P50 (concentration of peptide leading to 50% of the maximum increase in NPN uptake) [2]: 6.25 µg/mL
3 | KKFRRFVRFIAKK-NH2 [Pem-2253 L, Lys Lys Phe Arg Arg Phe Val Arg Phe Ile Ala Lys Lys] | 12.5 µg/mL | 12.5 µg/mL | 12.5 µg/mL | – | – | – | –
4 | KKWRAWLKWLAKK-NH2 [Pem-2251 L, Lys Lys Trp Arg Ala Trp Leu Lys Trp Leu Ala Lys Lys] | 6.25 µg/mL | 1.565 µg/mL | 12.5 µg/mL | – | – | – | MIC (Bacillus pumilus): 6.25 µg/mL; MIC (Bacillus substilis): 3.125 µg/mL; MIC (Staphylococcus aureus): 3.125 µg/mL; MIC (Pseudomonas aeruginosa): 6.25 µg/mL; MIC [5]: 3.125 µg/mL; MIC (Bacillus cereus): 6.25 µg/mL; MIC (E. coli): 3.125 µg/mL; P50 (concentration of peptide leading to 50% of the maximum increase in NPN uptake) [2]: 6.25 µg/mL
5 | KKWRKWLKWLAKK-NH2 [Pem-2254 L, Lys Lys Trp Arg Lys Trp Leu Lys Trp Leu Ala Lys Lys] | 1.565 µg/mL | 1.565 µg/mL | – | – | – | – | MIC (Bacillus pumilus): 3.125 µg/mL; MIC (Bacillus substilis): 3.125 µg/mL; MIC (Staphylococcus aureus): 1.565 µg/mL; MIC (Pseudomonas aeruginosa): 3.125 µg/mL; MIC [5]: 1.565 µg/mL; MIC (Bacillus cereus): 6.25 µg/mL; MIC (E. coli): 1.565 µg/mL; lysis percentage ([1]; 5 μg/ml peptide): 0.45%; lysis percentage ([1]; 50 μg/ml peptide): 1.52%; lysis percentage ([1]; 400 μg/ml peptide): 16.35%
6 | KKWRKWLRAIAKK-NH2 [Pem-2252 L, Lys Lys Trp Arg Lys Trp Leu Arg Ala Ile Ala Lys Lys] | 25 µg/mL | 25 µg/mL | 25 µg/mL | – | – | – | lysis percentage ([1]; 5 μg/ml peptide): 3.12%; lysis percentage ([1]; 5 μg/ml peptide, listed as Pem-2252): 0.45%; lysis percentage ([1]; 50 μg/ml peptide): 9.82%; lysis percentage ([1]; 50 μg/ml peptide, listed as Pem-2252): 1.52%; lysis percentage ([1]; 400 μg/ml peptide): 37.66%; lysis percentage ([1]; 400 μg/ml peptide, listed as Pem-2252): 16.35%; hemolytic activity against hRBC, in words ([1]; compared with other antimicrobial peptides): less hemolytic against hRBC than other antimicrobial peptides
7 | KWKIWLK-NH2 [Pem-1003 L, Lys Trp Lys Ile Trp Leu Lys] | 12.5 µg/mL | 25 µg/mL | 12.5 µg/mL | – | – | – | –
8 | Lys Lys Phe Arg Arg Phe Val Arg Phe Ile Ala Lys Lys (KKFRRFVRFIAKK; not fully specified (bridges); printed as Lys Lys Phe Arg Arg Phe Val Arg Phe Ile Ala Lys Lys; also: cyclic topology, ring type not given here) [Pem-2253 C] | – | – | – | 50 µg/mL | 50 µg/mL | 50 µg/mL | –
9 | Lys Lys Trp Arg Ala Trp Leu Lys Trp Leu Ala Lys Lys (KKWRAWLKWLAKK; not fully specified (bridges); printed as Lys Lys Trp Arg Ala Trp Leu Lys Trp Leu Ala Lys Lys; also: cyclic topology, ring type not given here) [Pem-2251 C] | – | – | – | 25 µg/mL | 25 µg/mL | 50 µg/mL | –
10 | Lys Lys Trp Arg Lys Trp Leu Arg Ala Ile Ala Lys Lys (KKWRKWLRAIAKK; not fully specified (bridges); printed as Lys Lys Trp Arg Lys Trp Leu Arg Ala Ile Ala Lys Lys; also: cyclic topology, ring type not given here) [Pem-2252 C] | – | – | – | >50 µg/mL | >50 µg/mL | >50 µg/mL | –
11 | Lys Lys Trp Arg Lys Trp Leu Lys Trp Leu Ala Lys Lys (KKWRKWLKWLAKK; not fully specified (bridges); printed as Lys Lys Trp Arg Lys Trp Leu Lys Trp Leu Ala Lys Lys; also: cyclic topology, ring type not given here) [Pem-2254 C] | – | – | – | 25 µg/mL | 25 µg/mL | 50 µg/mL | –
12 | Lys Phe Arg Ala Trp Val Arg (KFRAWVR; not fully specified (bridges); printed as Lys Phe Arg Ala Trp Val Arg; also: cyclic topology, ring type not given here) [Pem-1002 C] | – | – | – | >50 µg/mL | >50 µg/mL | >50 µg/mL | –
13 | Lys Phe Lys Arg Trp Leu Ala (KFKRWLA; not fully specified (bridges); printed as Lys Phe Lys Arg Trp Leu Ala; also: cyclic topology, ring type not given here) [Pem-1001 C] | – | – | – | >50 µg/mL | >50 µg/mL | >50 µg/mL | –
